Data reported in patent publication US12612403B2, “Nitrogen-containing heterocyclic derivative inhibitor, and preparation method therefor and use thereof” (SHANGHAI HANSOH BIOMEDICAL CO., LTD., priority 2024, dated 2026).

How the values were obtained:
[1] = Pharmacokinetic determination in mice (PO 5 mg/kg, IV 1 mg/kg); type: in vivo, C57BL/6J mice; details: male, C57BL/6J, mouse, plasma, C57 mice, PO administration, 5 mpk; for AUC(0-inf): read-out: Area under the curve AUC0-∞; for half-life: read-out: Half-life t1/2 (converted); for MRT: read-out: Mean residence time MRT; for Cmax: read-out: Plasma concentration Cmax; for Tmax: read-out: Time to peak tmax
Method in brief: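 Fasted male C57BL/6J mice (n=3 per route) dosed PO 5 mg/kg in 10% Solutol HS15 or IV 1 mg/kg in 5% DMSO/10% Solutol HS15/85% PBS. Orbital blood sampled 0.083 (IV) to 24 h; plasma measured by LC-MS/MS, parameters by WinNonlin.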

[2] = In vitro metabolic stability in human liver microsomes; type: in vitro ADME; details: pH 7.4
Experimental: 1. Experimental objective: The purpose of this experiment was to evaluate the metabolic stability of the compounds in phase I and partially phase II in mouse, rat and human liver microsomes, respectively.
2.1 Drug preparation: 10 mM stock solution of the compound of the present disclosure was prepared in DMSO (or other suitable solution) and stored in a −20° C. refrigerator for later use. The compound of the present disclosure was made in house.
2.2 Experimental steps • 1) Preparation of buffer: 4.01 mL of 1 M K2HPO4·3H2O (AR grade) and 0.99 mL of 1 M KH2PO4 (AR grade) were dissolved in ultrapure water and the volume was adjusted to 50 mL to prepare a phosphate buffer with a final concentration of 100 mM. • 2) Preparation of compound working solution: Preparation of compound working solution: 2 μL of the compound stock solution was added to 998 μL of phosphate buffer to a final concentration of 20 μM. According to the properties of the compound, the preparation proportions could be adjusted appropriately to adjust the final concentration. • 3) Preparation of liver microsome working solution: 156.3 μL of 20 mg/mL microsomes were diluted to 5 mL with 100 mM phosphate buffer, and the mixture was mixed well to reach a final concentration of 0.625 mg/mL. • 4) Preparation of NADPH and UDPGA: 33.3 mg of NADPH and 25.8 mg of UDPGA were weighed and added to 2 mL of 100 mM phosphate buffer to reach a final concentration of 20 mM. • 5) Preparation of pore-forming agent (Alamethicin): 1 mg of Alamethicin was weighed and added to 200 μL of methanol to prepare a 5 mg/mL solution. 10 μL of the solution was taken and added to 990 μL phosphate buffer (pH 7.4) to reach a final concentration of 50 μg/mL. • 6) Preparation of reaction stop solution: The internal standard was diluted with acetonitrile (or other suitable solution) to use as a stop solution and stored in a 2° C.-8° C. refrigerator. • 7) Incubation process: 400 μL of the prepared liver microsomes, 25 μL of the compound working solution (20 μM) and 25 μL of Alamethicin (50 μg/mL) were successively added to the 96-well plate, and the mixture was pre-incubated at 37° C. for 10 min. Then, 50 μL of prepared NADPH/UDPGA was added to start the reaction, and the mixture was incubated at 37° C. The total volume of the reaction system was 500 μL. The final contents of each component were as follows:
50 μL of samples were taken at 0, 5, 15, 30, 60 and 120 min, respectively, 200 μL of a cold stop solution containing the internal standard was added to stop the sample reaction, the mixture was centrifuged at 3500 rpm for 10 min, and the supernatant was taken and analyzed by LC-MS/MS.
Instruments: Shimadzu LC-20 AD; Chromatographic column: Phenomenex Gamin® C18 (50*4.6 mm, 5 μm particle size); mobile phase: A: 0.1% aqueous formic acid, B: acetonitrile; Elution gradient: 0.2-1.6 min, […], 3.0-3.1 min, 95% A to 5% A; Flow rate: 1.0 ml/min; Run time: 4.0 min; Injection volume: 5 μL.
Instruments: AP14000 liquid chromatography mass spectrometer, AB Sciex; Ion source: electrospray ionization source (ESI); Drying gas: N2, temperature 500° C.; Electrospray voltage: 5000 V; Detection mode: positive ion detection; Scanning mode: Reaction Monitoring (MRM) mode; Scanning time: 0.8401 s.
3. Data processing: The raw data were calculated according to the following formula: […]
The in vitro liver microsome intrinsic clearance rate (CLint) and liver intrinsic clearance rate (CLint,liver) were calculated by Ke.

For `O=c1nc(O)ccn1-c1ccc(N[C@H]2CC[C@H](Nc3nc4cc(C(F)(F)F)ccn4n3)C2)nc1` [Example 78, 4-hydroxy-1-(6-(((1S,3S)-3-((7-(trifluoromethyl)-[1,2,4]triazolo[1,5-a]pyridin-2-yl)amino)cyclopentyl)amino)pyridin-3-yl)pyrimidin-2(1H)-one], the AUC(0-inf) [1] was 14000 ng·h/mL, the half-life [1] was 3.6 h and the MRT [1] was 1.7 h. It also gave a Cmax [1] of 7860 ng/mL, a Tmax [1] of 0.25 h and a half-life at 1 µM [2] of 13.2 h. The microsomal CLint at 1 µM [2] was 1.75 µL/min/mg.

Compound `O=C1c2ncccc2CN1c1cnc(N[C@H]2CC[C@H](Nc3nc4cc(OC(F)F)ccn4n3)C2)c(F)c1` [Example 151] has an AUC(0-inf) [1] of 11300 ng·h/mL, a half-life [1] of 1.4 h and an MRT [1] of 2.3 h. The Cmax [1] was 3460 ng/mL, the Tmax [1] was 0.5 h and the half-life at 1 µM [2] was 11.8 h. The microsomal CLint at 1 µM [2] was 1.9 µL/min/mg.

Work on `O=c1nc(O)ccn1-c1cnc(N[C@H]2CC[C@H](Nc3nc4cc(C(F)(F)F)ccn4n3)C2)c(F)c1` [Example 183] yielded an AUC(0-inf) [1] of 26700 ng·h/mL, a half-life [1] of 3 h and an MRT [1] of 3.5 h. It also gave a Cmax [1] of 6130 ng/mL, a Tmax [1] of 0.7 h and a half-life at 1 µM [2] of 23 h. For the same compound, the microsomal CLint at 1 µM [2] was 1 µL/min/mg.
